Measurements as given in PMC8841757, “Direct Inhibition of GSDMD by PEITC Reduces Hepatocyte Pyroptosis and Alleviates Acute Liver Injury in Mice” (Frontiers in Immunology, 2022).
pKd: −log10 of the molar value.

Legend:
human GSDMD WT-EGFP [1] = target: T1, human GSDMD WT-EGFP (Homo sapiens, UniProt P57764); assay: cellular thermal shift assay (CETSA), western blot; type: cell-based; conditions: transfected HEK293T cells, 2 h
T1 construct: GSDMD WT fused to EGFP, transiently expressed in HEK293T cells, cell lysate (MST) or cells (CETSA)
T1 sequence (P57764 1-484): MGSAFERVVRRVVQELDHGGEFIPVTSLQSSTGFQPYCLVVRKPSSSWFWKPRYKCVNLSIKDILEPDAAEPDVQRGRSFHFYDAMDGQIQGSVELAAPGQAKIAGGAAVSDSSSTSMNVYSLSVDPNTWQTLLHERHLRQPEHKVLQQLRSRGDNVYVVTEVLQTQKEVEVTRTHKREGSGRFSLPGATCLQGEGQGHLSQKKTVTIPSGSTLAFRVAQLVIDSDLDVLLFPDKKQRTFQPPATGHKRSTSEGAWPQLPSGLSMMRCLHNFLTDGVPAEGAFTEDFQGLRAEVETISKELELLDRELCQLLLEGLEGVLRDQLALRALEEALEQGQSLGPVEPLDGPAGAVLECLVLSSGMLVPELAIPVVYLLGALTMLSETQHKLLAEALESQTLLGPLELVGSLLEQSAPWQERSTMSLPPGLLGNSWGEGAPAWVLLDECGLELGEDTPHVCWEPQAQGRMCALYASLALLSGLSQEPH

human GSDMD WT-EGFP [2] = target: T1, human GSDMD WT-EGFP; assay: microscale thermophoresis in cell lysate; type: biochemical
mouse GSDMD WT-EGFP = target: T2, mouse GSDMD WT-EGFP (Mus musculus, UniProt Q9D8T2); assay: microscale thermophoresis in cell lysate; type: biochemical
T2 construct: GSDMD WT fused to EGFP, transiently expressed in AML12 cells, cell lysate (MST); CETSA in AML12 cells with no transfection stated
T2 sequence (Q9D8T2 1-487): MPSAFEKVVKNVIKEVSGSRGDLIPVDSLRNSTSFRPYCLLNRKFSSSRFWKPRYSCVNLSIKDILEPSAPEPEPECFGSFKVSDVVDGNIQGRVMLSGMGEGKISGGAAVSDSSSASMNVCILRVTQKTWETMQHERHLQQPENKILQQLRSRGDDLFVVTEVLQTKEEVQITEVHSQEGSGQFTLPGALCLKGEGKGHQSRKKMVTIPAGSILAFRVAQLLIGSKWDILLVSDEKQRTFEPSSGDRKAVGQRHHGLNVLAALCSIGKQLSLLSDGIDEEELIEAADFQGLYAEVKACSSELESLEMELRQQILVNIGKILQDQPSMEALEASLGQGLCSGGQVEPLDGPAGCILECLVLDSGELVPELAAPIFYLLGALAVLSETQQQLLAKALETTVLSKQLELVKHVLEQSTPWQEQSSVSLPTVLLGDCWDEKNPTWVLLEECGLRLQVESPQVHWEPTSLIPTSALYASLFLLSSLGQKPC

Row | Compound | thermal stability (CETSA) (human GSDMD WT-EGFP [1]; 3 μM NSA) | pKd (human GSDMD WT-EGFP [2]) | pKd (mouse GSDMD WT-EGFP) | thermal stability (CETSA) (human GSDMD WT-EGFP [1]; 3 μM PEITC)
1 | COc1nccnc1NS(=O)(=O)c1ccc(NC(=O)/C=C/c2ccc([N+](=O)[O-])s2)cc1 [NSA] | NSA enhanced the thermal stability of human WT-GSDMD | 4.95 |  | 
2 | S=C=NCCc1ccccc1 [PEITC] |  | 6.64 | 6.51 | PEITC reduced the thermal stability of human WT-GSDMD
